Test results taken from EP0258134A1, “Therapeutical compositions containing benzhydryl thiomethane derivatives” (LABORATOIRE L. LAFON, priority 1986, dated 1988).

Tests used:
Solubility in water = type: physicochemical; details: water
Description: Le composé est une poudre blanche, insoluble dans l'éther de pétrole, soluble dans l'éther, l'acé-tate d'éthyle et les alcools. Sa solubilité dans l'eau est inférieure à 0,1%.

souris [1] = assay: Pretoxicity, i.p., 3 mice per dose; type: in vivo
Protocol: (§1) Le composé CRL 41 334, en suspension dans une solution de gomme arabique, a été administré par voie intrapéritonéale sous un volume de 20 ml/kg chez la souris (mâle, NMRI, C.E.R. Janvier) et de 5 ml/kg chez le rat (mâle, CD₁; SPRAGUE DAWLEY, Charles River).
I - PRETOXICITE ( 3 souris par dose)
(§2) Le CRL 41 055, en suspension dans une solution de gomme arabique, a été administré par voie intrapéritonéale sous un volume de 20 ml/kg chez la souris (mâle, NMRI, Evic Ceba).
Prétoxicite (3 souris par dose)
(§3) Le CRL 40 956, en suspension dans une solution de gomme arabique a été administré par voie intrapéritonéale sous un volume de 20 ml/kg chez la souris (mâle, NMRI, Evic Céba) et de 5 ml/kg chez le rat (mâle, CD₁, Sprague Dawley, Charles River).
Prétoxicité ( 3 souris par dose)

souris [2] = assay: Behavioural despair (forced immersion); type: in vivo; details: souris, 8, 32 et 128 mg/kg
Description: Une demi-heure après avoir reçu le composé CRL 41 334, des lots de 6 souris (mâles, CD₁, Charles River) sont placés dans un bécher rempli d'eau sur une hauteur de 6 cm. On note la durée totale d'immobilité entre la 2ème et la 6ème minutes suivant l'immersion.
Une demi-heure après avoir reçu le CRL 40 956, des lots de 10 souris (mâles CD₁ Charles River) sont plongées dans une enceinte réduite remplie d'eau sur une hauteur de 6 cm. On note la durée totale d'immobilité entre la 2ème et la 6ème minute suivant l'immersion.

souris [3] = assay: Motility reduced by habituation to the enclosure; type: in vivo; details: dès la dose de 2 mg/kg
Protocol: Après 18 heures de séjour dans les actimè-tres, les souris (6 par dose, 12 témoins) reçoivent le composé CRL 41 334. Elles sont aussitôt replacées dans leurs enceintes respectives et, une demi-heure plus tard, on enregistre leur motilité pendant 30 minutes.
Après 18 heures de séjour dans les actimètres, les souris (6 par dose, 12 émoins) reçoivent le CRL 41 055. Elles sontaussitôt replacées dans leurs enceintes respectives et, une demi-heure plus tard, on enregistre leur motilité pendant 30 minutes.

souris [4] = assay: Global behaviour and reactivities, mouse, i.p.; type: in vivo
Protocol: as §1
Des lots de 3 animaux sont observés avant, puis 15 mn, 30 mn, 1h, 2h, 3h et 24 heures après l'administration du composé CRL 41 334.
as §2, §3
Des lots de 3 animaux sont observés avant, puis 15 mn, 30 mn, 1 h, 2 h, 3 h et 24 heures après l'administration de CRL 40 956.

souris [5] = assay: Interaction with apomorphine, mouse; type: in vivo
Protocol: Des lots de 6 souris reçoivent le composé CRL 41 334 une demi-heure avant l'injection sous-cutanée d'apomorphine, à la dose de 1 ou 16 mg/kg. • a) Apomorphine 1 mg/kg • b) Apomorphine 16 mg/kg

souris [6] = assay: Interaction with reserpine, mouse; type: in vivo
Protocol: Quatre heures après l'injection intrapéritonéale de 2,5 mg/kg de réserpine, des lots de 12 souris reçoivent le composé CRL 41 334. • 1 - Action sur la température • 2 - Action sur le ptosis

homme = assay: Therapeutic use in humans; type: in vivo; details: homme, voie orale, 4 fois 50 mg par jour
souris [7] = assay: Asphyxic anoxia (gallamine triethiodide); type: in vivo; details: 128 mg/kg, triiodoéthylate de gallamine 32 mg/kg i.p.
Protocol: Des lots de 20 souris reçoivent le composé CRL 41 334 une demi-heure avant l'administration intrapéritonéale de 32 mg/kg de triiodoéthylate de gallamine.
Des lots de 10 souris reçoivent le CRL 40 956 une demi-heure avant l'administration intrapé-ritonéale de 32 mg/kg de triodoéthylate de Gallamine.

souris [8] = assay: Electroshock; type: in vivo; details: 128 mg/kg
Description: Le test est pratiqué sur des lots de 10 souris, une demi-heure après l'administration du composé CRL 41 334.

[9] = souris, 128 mg/kg, réserpine 2,5 mg/kg i.p.

In the case of `NC(=O)CSC(c1ccc(F)cc1)c1ccc(F)cc1` [CRL 41 334, 2-(4,4ʹ-difluorobenzhydrylthio)acétamide], the solubility (Solubility in water) is reported as < 1000 µg/mL, the symptômes (souris [1]; 128 mg/kg i.p.) is reported as “sédation, puis excitation 2 heures après” and the symptômes (souris [1]; 256 mg/kg i.p.) is reported as “sédation suivie d'excitation 2 heures après l'injection”. The convulsions (souris [1]; 256 mg/kg i.p., à 15 minutes) was 3/3, the symptômes (souris [1]; 512 mg/kg i.p.) was “démarche titubante” and the convulsions (souris [1]; 512 mg/kg i.p., pendant les 10 premières minutes) was 3/3. The mortalité (souris [1]; 512 mg/kg i.p., 1/3 en 15 minutes et 2/3 en 24 heures) was 3/3, the “durée de l'immobilité” value (souris [2]) was “diminue la durée de l'immobilité” and the “activité motrice chez la souris habituée à son enceinte” value (souris [3]) was “reprise nette de l'activité motrice”. The “comportement et réactivités” value (souris [4]; souris, 128 mg/kg i.p.) was “sédation pendant 30 minutes”, the Hypothermie (souris [4]; souris, 128 mg/kg i.p., à 30 minutes, durée 1 heure) was -4,1 ° and the “comportement et réactivités” value (souris [4]; souris, 2, 8 et 32 mg/kg i.p.) was “pas de modifications nettes du comportement et des réactivités”. For the same compound, the “hypothermie induite par l'apomorphine” value (souris [5]; 128 mg/kg, apomorphine 1 mg/kg s.c.) was “aggrave l'hypothermie induite par l'apomorphine”, the température (souris [5]; 128 mg/kg, compound alone) was “entraîne une hypothermie” and the “comportements de verticalisation et de stéréotypies” value (souris [5]; apomorphine 1 ou 16 mg/kg s.c.) was “NE SONT PAS MODIFIES”. The “hypothermie réserpinique” value (souris [6]; [9]) was “aggrave modérément l'hypothermie réserpinique”, the ptosis (souris [6]; [9]) was “n'est pas modi-fié” and the “hypothermie et ptosis réserpiniques” value (souris [6]; souris, 8, 32 ou 128 mg/kg, au temps 24 heures) was “semble s'opposer à l'hypothermie et au ptosis réserpiniques”. The “traitement des dépressions des brûlés” value (homme) was “bons résultats”, the “délai d'apparition de la mort” value (souris [7]) was “augmente le délai d'apparition de la mort” and the “délai d'apparition des convulsions” value (souris [7]) was “n'est pas modifié”. The “effets convulsivants de l'électrochoc” value (souris [8]) was “s'oppose faiblement aux effets convulsivants” and the “effets létaux de l'électrochoc” value (souris [8]) was “sans modifier les effets létaux”.
